Converted amounts (≈) assume the structure as drawn.
Experiments:
Type in all cases: cell-based
[1] = test system: Aspergillus niger IFO 6342; test: Antifungal activity, agar-dilution MIC, organism No. 30; conditions: Aspergillus niger, IFO6342; Organism No. 30, bouillon-agar; read-out: Minimum Inhibitory Concentration
How it was run: (§1)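 MICs were determined by agar dilution on bouillon-agar medium. The value is the minimum concentration of specimen inhibiting growth, expressed as μg/ml of culture medium.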

[2] = test system: Salmonella paratyphi-A 1015; test: Antibacterial activity, agar-dilution MIC, organism No. 10; conditions: Salmonella enterica, PARATYPHI, read-out: Minimum Inhibitory Concentration
How it was run: as §1

[3] = test system: Pseudomonas aeruginosa PAO 1; test: Antibacterial activity, agar-dilution MIC, organism No. 17; conditions: Pseudomonas aeruginosa, PAO1; Organism No. 17, bouillon-agar; read-out: Minimum Inhibitory Concentration
How it was run: as §1

[4] = test system: Staphylococcus aureus Terajima; test: Antibacterial activity, agar-dilution MIC, organism No. 2; conditions: Staphylococcus aureus; Organism No. 2, bouillon-agar; read-out: Minimum Inhibitory Concentration
How it was run: as §1

[5] = test system: Proteus mirabilis IFO 3849; test: Antibacterial activity, agar-dilution MIC, organism No. 19; conditions: Proteus mirabilis, IFO3849; Organism No. 19, bouillon-agar; read-out: Minimum Inhibitory Concentration
How it was run: as §1

[6] = test system: Streptococcus faecium IFO 3826; test: Antibacterial activity, agar-dilution MIC, organism No. 27; conditions: Enterococcus faecium, IFO3826; Organism No. 27, bouillon-agar; read-out: Minimum Inhibitory Concentration
How it was run: as §1

[7] = test system: Enterobacter aerogenes ATCC 13048; test: Antibacterial activity, agar-dilution MIC, organism No. 23; conditions: Klebsiella aerogenes, ATCC13048; Organism No. 23, bouillon-agar; read-out: Minimum Inhibitory Concentration
How it was run: as §1

[8] = test system: Proteus rettgeri IFO 3850; test: Antibacterial activity, agar-dilution MIC, organism No. 22; conditions: Providencia rettgeri, IFO3850; Organism No. 22, bouillon-agar; read-out: Minimum Inhibitory Concentration
How it was run: as §1

[9] = test system: Bacillus subtilis ATCC 6633; test: Antibacterial activity, agar-dilution MIC, organism No. 14; conditions: Bacillus subtilis, ATCC6633; Organism No. 14, bouillon-agar; read-out: Minimum Inhibitory Concentration
How it was run: as §1

[10] = test system: Proteus morganii IFO 3848; test: Antibacterial activity, agar-dilution MIC, organism No. 18; conditions: Morganella morganii, IFO3848; Organism No. 18, bouillon-agar; read-out: Minimum Inhibitory Concentration
How it was run: as §1

[11] = test system: Staphylococcus aureus FDA 209PJc-1; test: Antibacterial activity, agar-dilution MIC, organism No. 1; conditions: Staphylococcus aureus, FDA209PJC1; Organism No. 1, bouillon-agar; read-out: Minimum Inhibitory Concentration
How it was run: as §1

[12] = test system: Klebsiella pneumoniae PCI-602; test: Antibacterial activity, agar-dilution MIC, organism No. 7; conditions: Klebsiella pneumoniae, PCI602; Organism No. 7, bouillon-agar; read-out: Minimum Inhibitory Concentration
How it was run: as §1

Proteus vulgaris OX-19 = test: Antibacterial activity, agar-dilution MIC, organism No. 20; conditions: Proteus vulgaris, OX19; Organism No. 20, bouillon-agar; read-out: Minimum Inhibitory Concentration
How it was run: as §1

Proteus vulgaris HX-19 = test: Antibacterial activity, agar-dilution MIC, organism No. 21; conditions: Proteus vulgaris, HX19; Organism No. 21, bouillon-agar; read-out: Minimum Inhibitory Concentration
How it was run: as §1

[13] = test system: Escherichia coli NIHJ-JC-2; test: Antibacterial activity, agar-dilution MIC, organism No. 5; conditions: Escherichia coli, NIHJJC2; Organism No. 5, bouillon-agar; read-out: Minimum Inhibitory Concentration
How it was run: as §1

[14] = test system: Candida albicans IAM 4905; test: Antifungal activity, agar-dilution MIC, organism No. 29; conditions: Candida albicans, IAM4905; Organism No. 29, bouillon-agar; read-out: Minimum Inhibitory Concentration
How it was run: as §1

[15] = test system: Pseudomonas aeruginosa IFO 3445; test: Antibacterial activity, agar-dilution MIC, organism No. 15; conditions: Pseudomonas aeruginosa, IFO3445; Organism No. 15, bouillon-agar; read-out: Minimum Inhibitory Concentration
How it was run: as §1

[16] = test system: Streptococcus pyogenes Cook; test: Antibacterial activity, agar-dilution MIC, organism No. 4; conditions: Streptococcus pyogenes; Organism No. 4, bouillon-agar; read-out: Minimum Inhibitory Concentration
How it was run: as §1

[17] = test system: Pseudomonas aeruginosa NCTC 10490; test: Antibacterial activity, agar-dilution MIC, organism No. 16; conditions: Pseudomonas aeruginosa, NCTC10490; Organism No. 16, bouillon-agar; read-out: Minimum Inhibitory Concentration
How it was run: as §1

[18] = test system: Mycoplasma pneumoniae IID817; test: Antimycoplasmal activity, MIC by phenol red colour change, organism No. 28; conditions: Mycoplasma, IID817; Organism No. 28, PPLO broth + 1% glucose, 37° C.; read-out: Minimum Inhibitory Concentration (MIC)
Procedure: Mycoplasma pneumoniae IID817 was used as the test microorganism in a culture medium prepared by adding 1% of glucose to "PPLO broth (manufactured by Difco Co.) liquid culture medium" at 37° C. with phenol red as an indicator, thereby culturing the test microorganism.

[19] = test system: Escherichia coli K12 C600 IAM 1264; test: Antibacterial activity, agar-dilution MIC, organism No. 6; conditions: Escherichia coli, IAM1264; Organism No. 6, bouillon-agar; read-out: Minimum Inhibitory Concentration
How it was run: as §1

[20] = test system: Serratia marcescens IAM 1184; test: Antibacterial activity, agar-dilution MIC, organism No. 13; conditions: Serratia marcescens, IAM1184; Organism No. 13, bouillon-agar; read-out: Minimum Inhibitory Concentration
How it was run: as §1

[21] = test system: Salmonella typhimurium IID 971; test: Antibacterial activity, agar-dilution MIC, organism No. 8; conditions: Salmonella enterica; Organism No. 8, bouillon-agar; read-out: Minimum Inhibitory Concentration
How it was run: as §1

[22] = test system: Staphylococcus aureus MS 353; test: Antibacterial activity, agar-dilution MIC, organism No. 3; conditions: Staphylococcus aureus, MS353; Organism No. 3, bouillon-agar; read-out: Minimum Inhibitory Concentration
How it was run: as §1

[23] = test system: Salmonella enteritidis G 14; test: Antibacterial activity, agar-dilution MIC, organism No. 12; conditions: Salmonella enterica, ENTERITIDIS; Organism No. 12, bouillon-agar; read-out: Minimum Inhibitory Concentration
How it was run: as §1

Enterobacter cloacae 963 = test: Antibacterial activity, agar-dilution MIC, organism No. 24; conditions: Enterobacter cloacae, 963; Organism No. 24, bouillon-agar; read-out: Minimum Inhibitory Concentration
How it was run: as §1

Salmonella typhi 901 = test: Antibacterial activity, agar-dilution MIC, organism No. 9; conditions: Salmonella enterica, TYPHI, read-out: Minimum Inhibitory Concentration
How it was run: as §1

[24] = test system: Salmonella shottmuelleri 8006; test: Antibacterial activity, agar-dilution MIC, organism No. 11; conditions: Salmonella, 8006; Organism No. 11, bouillon-agar; read-out: Minimum Inhibitory Concentration
How it was run: as §1

[25] = test system: Streptococcus pyogenes IFO 3340; test: Antibacterial activity, agar-dilution MIC, organism No. 26; conditions: Streptococcus pyogenes, IFO3340; Organism No. 26, bouillon-agar; read-out: Minimum Inhibitory Concentration
How it was run: as §1

[26] = test system: Micrococcus luteus ATCC 9341; test: Antibacterial activity, agar-dilution MIC, organism No. 25; conditions: Micrococcus luteus, ATCC9341; Organism No. 25, bouillon-agar; read-out: Minimum Inhibitory Concentration
How it was run: as §1

| SMILES | MIC [1] [µg/mL] | MIC [2] [µg/mL] | MIC [3] [µg/mL] | MIC [4] [µg/mL] | MIC [5] [µg/mL] | MIC [6] [µg/mL] | MIC [7] [µg/mL] | MIC [8] [µg/mL] | MIC [9] [µg/mL] | MIC [10] [µg/mL] | MIC [11] [µg/mL] | MIC [12] [µg/mL] | MIC (Proteus vulgaris OX-19) [µg/mL] | MIC (Proteus vulgaris HX-19) [µg/mL] | MIC [13] [µg/mL] | MIC [14] [µg/mL] | MIC [15] [µg/mL] | MIC [16] [µg/mL] | MIC [17] [µg/mL] | MIC [18] [µg/mL] | also measured |
| --- | --- | --- | --- | --- | --- | --- | --- | --- | --- | --- | --- | --- | --- | --- | --- | --- | --- | --- | --- | --- | --- |
| [C-]#[N+]C12CC3(/C=C/C(=O)Nc4ccc(C(=O)O)cc4)OC3C1O2 (stereo not drawn) [compound 51] | 100 (≈ 320 µM) | 50 (≈ 160 µM) | > 200 | 12.5 (≈ 40 µM) | > 200 | 12.5 (≈ 40 µM) | > 200 | > 200 | 50 (≈ 160 µM) | 1.56 (≈ 5 µM) | 12.5 (≈ 40 µM) | 100 (≈ 320 µM) | 12.5 (≈ 40 µM) | 12.5 (≈ 40 µM) | 200 (≈ 640 µM) | 100 (≈ 320 µM) | > 200 | 12.5 (≈ 40 µM) | > 200 | < 0.2 | MIC [19]: 200 µg/mL (≈ 640 µM); MIC [20]: > 200 µg/mL; MIC [21]: 100 µg/mL (≈ 320 µM); MIC [22]: 6.25 µg/mL (≈ 20 µM); MIC [23]: 50 µg/mL (≈ 160 µM); MIC (Enterobacter cloacae 963): > 200 µg/mL; MIC (Salmonella typhi 901): 50 µg/mL (≈ 160 µM); MIC [24]: 50 µg/mL (≈ 160 µM); MIC [25]: 25 µg/mL (≈ 80.1 µM); MIC [26]: 1.56 µg/mL (≈ 5 µM) |
| [C-]#[N+]C12CC3(/C=C/C(=O)OCC(=O)c4ccc([N+](=O)[O-])cc4)OC3C1O2 (stereo not drawn) [compound 8] | 100 (≈ 281 µM) | 25 (≈ 70.2 µM) | > 100 | 25 (≈ 70.2 µM) | 100 (≈ 281 µM) | 25 (≈ 70.2 µM) | > 100 | > 100 | 100 (≈ 281 µM) | 25 (≈ 70.2 µM) | 12.5 (≈ 35.1 µM) | 50 (≈ 140 µM) | 12.5 (≈ 35.1 µM) | 12.5 (≈ 35.1 µM) | 25 (≈ 70.2 µM) | 25 (≈ 70.2 µM) | > 100 | 50 (≈ 140 µM) | > 100 | 1.56 | MIC [19]: 25 µg/mL (≈ 70.2 µM); MIC [20]: 100 µg/mL (≈ 281 µM); MIC [21]: 25 µg/mL (≈ 70.2 µM); MIC [22]: 12.5 µg/mL (≈ 35.1 µM); MIC [23]: 12.5 µg/mL (≈ 35.1 µM); MIC (Enterobacter cloacae 963): > 100 µg/mL; MIC (Salmonella typhi 901): 12.5 µg/mL (≈ 35.1 µM); MIC [24]: 25 µg/mL (≈ 70.2 µM); MIC [25]: 50 µg/mL (≈ 140 µM); MIC [26]: 12.5 µg/mL (≈ 35.1 µM) |
| [C-]#[N+]C12CC3(/C=C/C(=O)Nc4cccc(C(=O)O)c4)OC3C1O2 (stereo not drawn) [compound 52] | 100 (≈ 320 µM) | 50 (≈ 160 µM) | > 200 | 50 (≈ 160 µM) | > 200 | 50 (≈ 160 µM) | > 200 | > 200 | 200 (≈ 640 µM) | 12.5 (≈ 40 µM) | 12 (≈ 38.4 µM) | 200 (≈ 640 µM) | 50 (≈ 160 µM) | 50 (≈ 160 µM) | 200 (≈ 640 µM) | 100 (≈ 320 µM) | > 200 | 50 (≈ 160 µM) | > 200 | < 0.2 | MIC [19]: 200 µg/mL (≈ 640 µM); MIC [20]: > 200 µg/mL; MIC [21]: 100 µg/mL (≈ 320 µM); MIC [22]: 25 µg/mL (≈ 80.1 µM); MIC [23]: 50 µg/mL (≈ 160 µM); MIC (Enterobacter cloacae 963): > 200 µg/mL; MIC (Salmonella typhi 901): 50 µg/mL (≈ 160 µM); MIC [24]: 50 µg/mL (≈ 160 µM); MIC [25]: 100 µg/mL (≈ 320 µM); MIC [26]: 25 µg/mL (≈ 80.1 µM) |

From patent US4684664A, “Derivatives of β-(4-isocyano-1,2,3,4-diepoxycyclopentyl) acrylic acid” (Kureha Kagaku Kogyo Kabushiki Kaisha, priority 1984, dated 1987)
